Source: patent US10364263B2, “Cyclic phosphates and cyclic phosphoramidates for the treatment of neurologic disorders” (Retrophin, Inc., priority 2015, dated 2019)

System: PANK2 silenced human neuroblastoma IMR32 cells (PANK2−/−)
Assay: Coenzyme A assay in PANK2 silenced cells (LC-MS quantification of free CoA)
Format: cell-based
Conditions: compound added twice (24 h + 24 h), relative to 0.1% DMSO controls
Description: A human neuroblastoma IMR32 cell line (ATCC) with stably PANK2 silencing was obtained by lentiviral-delivered small hairpin RNA and cultured in MEM (Invitrogen) supplemented with 10% fetal bovine serum, 2 mM glutamine, 1% penicillin-streptomycin, 1 mM sodium pyruvate, 1 mM non essential amino acids and 1.5 g/l sodium bicarbonate.
For lentiviral shRNA expression, Human Emryonic Kidney HEK-293T cells (ATCC) were transfected with the appropriate pGFP-Lenti-shRNA constructs and packaging plasmids according to manufacturer's protocol (Origene Technologies, Inc.). Four different gene-specific shRNA expression vectors designed against multiple splice variants of PANK2 (Gene ID 80025) were used for transfection. A non-silencing shRNA construct (scrambled shRNA) and an empty vector expressing GFP alone were used as negative controls. The GFP tag subcloned into the lentiviral vectors was used to monitor the transfection efficiency.
IMR32 cells were plated on 150 cm dishes 48 h before transduction with lentiviral particles.
Three days after transduction medium was removed and replaced with fresh medium containing […] puromycin. Medium was replaced every 48 h. Levels of PANK2 expression on selected clones was assessed by Western Blot analysis.
To quantify CoA, PANK2^−/− IMR32 cells were plated on 12-well culture plates (Corning) at a density of 0.2×10^6 cells per well. After 72 h, compounds were freshly dissolved in DMSO and added to the culture medium to yield a final solvent concentration of 0.1% (v/v). Controls with medium containing 0.1% DMSO without test compounds were also included in each plate. Compound treated cells were incubated for 24 h at 37° C. Treatment was repeated after 24 h with newly dissolved compound and cells were further incubated at 37° C. for additional 24 h. Before LC-MS analysis of CoA levels, cells were harvested, counted, and collected in a 15 ml falcon tube and centrifuged at 200×g for 5 min at 4° C. Supernatant was removed and cell pellet was washed in 10 ml of ice-cold PBS. To further confirm that the numbers of cells in each sample were equivalent, an equal fraction of pellet was collected from each sample and subjected to protein determination analysis. After centrifugation and supernatant removal, the cell pellet was rapidly frozen in Liquid Nitrogen and stored at −80° C. until analysis.
Intracellular CoA levels were calculated considering an intracellular volume of 1 million cells=2 μl.
The 1×10^6 cellular pellet was extracted with 120 μl of aqueous 20% TFA. This solution was stirred for 2 min, sonicated in ultrasonic bath for 2 min, then stirred again for 1 min, and centrifuged for 15 min at 14000 g and at 4° C.
100 μL samples of supernatant were dried under N2 at 20° C. in the dark.
Samples were re-dissolved in 100 μl of 10 mM NH4^+ AcO^− buffer pH 5.1+IS (Dextrorphan 50 ng/ml), stirred for 2 min, sonicated in ultrasonic bath for 1 min, then stirred again for 1 min, and injected into LC-MS.
LC-MS/MS was performed using an Agilent HPLC (1100 Series, USA). The LC system was interfaced with an API-4000 Q-Trap triple quadrupole mass spectrometer (AB Sciex, Toronto, Canada) equipped with a TurbolonSpray ionization source operating in positive ion mode. Analyst™ software version 1.6 (AB Sciex, Toronto, Canada) was used for data acquisition and processing. CoA was separated using a Luna C18 column (2.0×50 mm; 5 μm particle size), column at 25° C. and flow rate of 0.2 ml/min. Injection volume was 15 μl. The mobile phases consisted of water containing 10 mM ammonium acetate pH 7 (mobile phase A) and MeCN-2-propanol 9:1 (mobile phase B). Elution was performed using a gradient starting at 2% B, holding at 2% B until 0.1 min, increasing to 98% B at 3.2 min, holding at 98% B until 4.5 min, returning to 2% B at 4.6 min and holding at 2% B until 7.5 min. Precursor ions and MRM transitions used were: CoA m/z 768.1→261.6 and 768.1→136.1. […]

## COC(=O)CCNC(=O)[C@@H]1OP(=O)(OCOC(=O)c2cnco2)OCC1(C)C (stereo partly drawn) [Compound No. 87, (((4R)-4-((3-methoxy-3-oxopropyl)carbamoyl)-5,5-dimethyl-2-oxido-1,3,2-dioxaphosphinan-2-yl)oxy)methyl oxazole-5-carboxylate]
  PANK2−/− CoA (Fold Increase): fold increase in Coenzyme A (CoA) levels relative to controls: 58.7 Fold Increase

## COC(=O)CCNC(=O)[C@@H]1O[P@@](=O)(OCOC(=O)c2sncc2C)OCC1(C)C [2-176, (((2S,4R)-4-((3-methoxy-3-oxopropyl)carbamoyl)-5,5-dimethyl-2-oxido-1,3,2-dioxaphosphinan-2-yl)oxy)methyl 4-methylisothiazole-5-carboxylate]
  PANK2−/− CoA (Fold Increase): fold increase in Coenzyme A (CoA) levels relative to controls: 53.24 Fold Increase

## CCOC(=O)[C@H](CC(C)C)NP1(=O)OCC(C)(C)[C@H](C(=O)NCCC(=O)OC)O1 (stereo partly drawn) [compound 8, ethyl ((4R)-4-((3-methoxy-3-oxopropyl)carbamoyl)-5,5-dimethyl-2-oxido-3,3,2-dioxaphosphinan-2-yl)-L-leucinate]
  PANK2−/− CoA (Fold Increase): fold increase in Coenzyme A (CoA) levels relative to controls: 0.69 Fold Increase

## CC(C)(C)C(=O)OCOP1(=O)OCC(C)(C)[C@H](C(=O)NCCC(=O)OCc2ccncc2)O1 (stereo partly drawn) [Compound No. 101, (((4R)-5,5-dimethyl-2-oxido-4-((3-oxo-3-(pyridin-4-ylmethoxy)propyl)carbamoyl)-1,3,2-dioxaphosphinan-2-yl)oxy)methyl pivalate]
  PANK2−/− CoA (Fold Increase): fold increase in Coenzyme A (CoA) levels relative to controls: 81.66 Fold Increase

## CO[13C](=O)[13CH2][13CH2][15NH]C(=O)[C@@H]1OP(=O)(Oc2ccccc2)OCC1(C)C (stereo partly drawn) [2-109, methyl 3-((4R)-5,5-dimethyl-2-oxido-2-phenoxy-1,3,2-dioxaphosphinane-4-carboxamido-15N)propanoate-1,2,3-13C3]
  PANK2−/− CoA (Fold Increase): fold increase in Coenzyme A (CoA) levels relative to controls: 2.04 Fold Increase

## COC(=O)CCNC(=O)[C@@H]1O[P@](=O)(OCOC(=O)c2ccnn2C)OCC1(C)C [2-185, (((2R,4R)-4-((3-methoxy-3-oxopropyl)carbamoyl)-5,5-dimethyl-2-oxido-1,3,2-dioxaphosphinan-2-yl)oxy)methyl 1-methyl-1H-pyrazole-5-carboxylate]
  PANK2−/− CoA (Fold Increase): fold increase in Coenzyme A (CoA) levels relative to controls: 114.15 Fold Increase

## COC(=O)CCNC(=O)[C@@H]1O[P@@](=O)(Oc2ccc([N+](=O)[O-])cc2)OCC1(C)C [2-121, methyl 3-((2S,4R)-5,5-dimethyl-2-(4-nitrophenoxy)-2-oxido-1,3,2-dioxaphosphinane-4-carboxamido)propanoate]
  PANK2−/− CoA (Fold Increase): fold increase in Coenzyme A (CoA) levels relative to controls: 1.59 Fold Increase

## COC(=O)CCNC(=O)[C@@H]1O[P@@](=O)(OCOC(=O)c2scnc2C(C)(C)C)OCC1(C)C [2-192, (((2S,4R)-4-((3-methoxy-3-oxopropyl)carbamoyl)-5,5-dimethyl-2-oxido-1,3,2-dioxaphosphinan-2-yl)oxy)methyl 4-(tert-butyl)thiazole-5-carboxylate]
  PANK2−/− CoA (Fold Increase): fold increase in Coenzyme A (CoA) levels relative to controls: 2.52 Fold Increase

## COC(=O)CCNC(=O)[C@@H]1OP(=O)(OCOC(=O)c2cc(C(C)(C)C)nn2C)OCC1(C)C (stereo partly drawn) [2-144, (((4R)-4-((3-methoxy-3-oxopropyl)carbamoyl)-5,5-dimethyl-2-oxido-1,3,2-dioxaphosphinan-2-yl)oxy)methyl 3-(tert-butyl)-1-methyl-1H-pyrazole-5-carboxylate]
  PANK2−/− CoA (Fold Increase): fold increase in Coenzyme A (CoA) levels relative to controls: 77.8 Fold Increase

## COC(=O)CCNC(=O)[C@@H]1O[P@](=O)(Oc2ccc(C(F)(F)F)nc2)OCC1(C)C [2-198, methyl 3-((2R,4R)-5,5-dimethyl-2-oxido-2-((6-(trifluoromethyl)pyridin-3-yl)oxy)-1,3,2-dioxaphosphinane-4-carboxamido)propanoate]
  PANK2−/− CoA (Fold Increase): fold increase in Coenzyme A (CoA) levels relative to controls: 13.6 Fold Increase

## COC(=O)CCNC(=O)[C@@H]1O[P@@](=O)(OCOC(=O)N[C@@H](CSC(=O)C(C)(C)C)C(=O)OCc2ccccc2)OCC1(C)C [2-164, Benzyl N-(((((2S,4R)-4-((3-methoxy-3-oxopropyl)carbamoyl)-5,5-dimethyl-2-oxido-1,3,2-dioxaphosphinan-2-yl)oxy)methoxy)carbonyl)-S-pivaloyl-L-cysteinate]
  PANK2−/− CoA (Fold Increase): fold increase in Coenzyme A (CoA) levels relative to controls: 101.86 Fold Increase

## COC(=O)CCNC(=O)[C@@H]1OP(=O)(OCOC(=O)N[C@@H](CSC(=O)C(C)(C)C)C(=O)OCC(=O)c2ccccc2)OCC1(C)C (stereo partly drawn) [2-202, 2-oxo-2-phenylethyl N-(((((4R)-4-((3-methoxy-3-oxopropyl)carbamoyl)-5,5-dimethyl-2-oxido-1,3,2-dioxaphosphinan-2-yl)oxy)methoxy)carbonyl)-S-pivaloyl-L-cysteinate]
  PANK2−/− CoA (Fold Increase): fold increase in Coenzyme A (CoA) levels relative to controls: 2.62 Fold Increase

## COC(=O)CCNC(=O)[C@@H]1O[P@@](=O)(OCCNC(C)=O)OCC1(C)C [2-115, methyl 3-((2R,4R)-2-(2-acetamidoethoxy)-5,5-dimethyl-2-oxido-1,3,2-dioxaphosphinane-4-carboxamido)propanoate]
  PANK2−/− CoA (Fold Increase): fold increase in Coenzyme A (CoA) levels relative to controls: 1.6 Fold Increase

## COC(=O)CCNC(=O)[C@@H]1OP(=O)(OCOC(=O)N[C@@H](CSC(=O)C(C)(C)C)C(=O)OCc2ccccc2)OCC1(C)C (stereo partly drawn) [2-174, benzyl N-(((((4R)-4-((3-methoxy-3-oxopropyl)carbamoyl)-5,5-dimethyl-2-oxido-1,3,2-dioxaphosphinan-2-yl)oxy)methoxy)carbonyl)-S-pivaloyl-L-cysteinate]
  PANK2−/− CoA (Fold Increase): fold increase in Coenzyme A (CoA) levels relative to controls: 93.99 Fold Increase

## COC(=O)CCNC(=O)[C@@H]1O[P@@](=O)(OC(C)OC(=O)C(C)C)OCC1(C)C (stereo partly drawn) [compound 106, 1-(((2S,4R)-4-((3-methoxy-3-oxopropyl)carbamoyl)-5,5-dimethyl-2-oxido-1,3,2-dioxaphosphinan-2-yl)oxy)ethyl isobutyrate]
  PANK2−/− CoA (Fold Increase): fold increase in Coenzyme A (CoA) levels relative to controls: 2.66 Fold Increase

## COC(=O)CCNC(=O)[C@@H]1O[P@](=O)(OCOC(=O)c2scnc2C(C)C)OCC1(C)C [2-188, (((2R,4R)-4-((3-methoxy-3-oxopropyl)carbamoyl)-5,5-dimethyl-2-oxido-1,3,2-dioxaphosphinan-2-yl)oxy)methyl 4-isopropylthiazole-5-carboxylate]
  PANK2−/− CoA (Fold Increase): fold increase in Coenzyme A (CoA) levels relative to controls: 131.48 Fold Increase

## COC(=O)CCNC(=O)[C@@H]1O[P@](=O)(Oc2ccc([N+](=O)[O-])cc2)OCC1(C)C (single isomer, unassigned) [Compound No. 2-120]
  PANK2−/− CoA (Fold Increase): fold increase in Coenzyme A (CoA) levels relative to controls: 21.05 Fold Increase

## COC(=O)CCNC(=O)[C@@H]1O[P@@](=O)(OCOC(=O)NC(C)(C)COC(=O)[C@@H](N)C(C)C)OCC1(C)C [2-158, 2-((((((2S,4R)-4-((3-methoxy-3-oxopropyl)carbamoyl)-5,5-dimethyl-2-oxido-1,3,2-dioxaphosphinan-2-yl)oxy)methoxy)carbonyl)amino)-2-methylpropyl L-valinate]
  PANK2−/− CoA (Fold Increase): fold increase in Coenzyme A (CoA) levels relative to controls: 2.72 Fold Increase

## COC(=O)CCNC(=O)[C@@H]1O[P@](=O)(Oc2ccccc2C(=O)OC)OCC1(C)C [2-166]
  PANK2−/− CoA (Fold Increase): fold increase in Coenzyme A (CoA) levels relative to controls: 3.61 Fold Increase
